{
  "source": "patent US20190053489A1",
  "about": "“ANTIMICROBIAL COMPOSITION” (NATIONAL UNIVERSITY CORPORATION TOKYO MEDICAL AND DENTAL …, priority 2016, published 2019)",
  "key": {"[1]": {"system": "Pseudomonas aeruginosa NBRC 13275", "assay": "Proliferation suppression against pseudomonas aeruginosa in a diluted medium (OD600)", "assay_type": "cell-based", "details": "diluted 1/2.5 TSB medium with phosphate buffer pH 7.0; complex 0.01%; FIG. 2", "procedure": "(§1) This test employed Pseudomonas aeruginosa NBRC 13275, and this microbe strain was cultured in a normal broth medium at 37° C. for 20 hours. The cultured microbial solution was collected by centrifugation (3000 rpm, 10 minutes), suspended with sterilized water, and then diluted with sterilized water so that the optical density would satisfy OD600=1.0. The resultant was diluted 2000 times (corresponding to 10^6 CFU/ml) to prepare a reaction microbial solution.\nEach of the TSB test medium samples was added with 100 μl of reaction microbial solution and was shake cultured under the condition of 37° C. for 48 hours. Here, the TSB test medium samples were prepared using 10 ml of 1/2.5 TSB medium added with 200 μl of 1 M phosphate buffer (pH 7.0), followed by further addition of […]\n(§2) After that, 3 ml was extracted at time intervals (0, 1, and 2 days), and the optical density was measured at an absorption wavelength of 600 nm. […]"}, "pseudomonas aeruginosa": {"system": "pseudomonas aeruginosa", "assay": "Observation of morphological change in pseudomonas aeruginosa by electron microscope", "assay_type": "cell-based", "procedure": "Next, the morphological change in MRSA was observed by using a transmission electron microscope. This observation with a transmission electron microscope was carried out as follows: the sample was sliced in 50 nm with a diamond knife as the pretreatment and was stained with uranium acetate and lead citrate, and a transmission electron microscope (JEM-1400 manufactured by JEOL Ltd.) was used. In addition, the samples were MRSA added with physiological saline and MRSA added with a lysozyme-chitosan complex with a concentration of 0.2% by mass.\nNote that the morphological change in the case of adding the lysozyme-chitosan complex to pseudomonas aeruginosa was also observed using a transmission electron microscope in the same manner as above. […] In other words, the lysozyme-chitosan complex also has a resistant microbe inactivation effect for pseudomonas aeruginosa.\nObservation was carried out with a scanning electron microscope for the morphological changes in MRSA and pseudomonas aeruginosa treated with the lysozyme-chitosan complex, lysozyme alone, chitosan alone, and the mixture of lysozyme and chitosan (treatment time: 2 hours). This observation with a scanning electron microscope was carried out in the same manner as Example 8 described above: osmium coating (4 nm) was performed as the conductive treatment, and a low-acceleration ultra-high resolution scanning electron microscope (SU 9000 manufactured by Hitachi High-Technologies Corporation (accelerating voltage: 1 kV)) was used. In addition, the samples were MRSA or pseudomonas aeruginosa added with physiological saline, a lysozyme-chitosan complex with a concentration of 0.1% by mass, lysozyme of 0.05% by mass, chitosan of 0.05% by mass, and a mixture of lysozyme and chitosan, each with 0.05% by mass."}, "MRSA IID 1677 [2]": {"system": "MRSA IID 1677", "assay": "MRSA-resistant microbe acquisition protocol (microdilution method)", "assay_type": "cell-based, Methicillin-Resistant Staphylococcus Aureus (MRSA)", "details": "subculture 25 generations; FIG. 12", "procedure": "This test employed MRSA IID 1677, and a resistant microbe acquisition protocol was carried out by use of the microdilution method proposed by Japanese Society of Chemotherapy."}, "MRSA IID 1677 [3]": {"system": "MRSA IID 1677", "assay": "Proliferation suppression against MRSA in a diluted medium (OD600)", "assay_type": "cell-based, Methicillin-Resistant Staphylococcus Aureus (MRSA)", "details": "diluted 1/2.5 LB medium, 37° C., OD 600 nm; complex 0.001%, lysozyme, chitosan and each of mixture 0.0005%; FIG. 1", "procedure": "as §1, with “MRSA IID 1677,” for “Pseudomonas aeruginosa NBRC 13275,”\nEach of the LB test medium samples was added with 100 μl of reaction microbial solution and was shake cultured under the condition of 37° C. for 48 hours. Here, the LB test medium samples were prepared using 10 ml of 1/2.5 LB medium added with\n(1) 10 ml of sterilized water, (2) 10 ml of the lysozyme-chitosan complex with a concentration of 0.002% (the concentration after addition was 0.001%), (3) 10 ml of lysozyme alone with a concentration of 0.001% (the concentration after addition was 0.0005%), (4) 10 ml of chitosan alone with a concentration of 0.001% (the concentration after addition was 0.0005%), and (5) 10 ml of the mixture of lysozyme and chitosan with a concentration of 0.001% (the concentration of each after addition was 0.0005%).\nas §2"}, "[4]": {"system": "Pseudomonas aeruginosa PAO 1", "assay": "Proliferation suppression against pseudomonas aeruginosa PAO 1 in a standard medium (colony count method)", "assay_type": "cell-based", "details": "standard TSB medium; colony count 6 hours later; complex 0.2%, others 0.1%; FIG. 10", "source_text": "This test employed Pseudomonas aeruginosa NBRC 13275 or PAO 1, and other procedures were the same as those of [Example 5] described earlier.\nNote that the results of FIG. 9 are each the average value of the values obtained by carrying out the colony count method three times and that the results of FIG. 10 are each the average value of the values obtained by carrying out the colony count method five times."}},
  "data": [
    {"substance": "lysozyme-chitosan complex: complex of lysozyme and water-soluble chitosan (molecular weight 14000 Da) bound to each other through the Maillard reaction", "values": [
      {"measurement": "proliferation suppression effect against pseudomonas aeruginosa past 24 hours", "setting": "[1]", "value": "strong proliferation suppression effect"},
      {"measurement": "morphological change in pseudomonas aeruginosa, transmission electron microscope", "setting": "pseudomonas aeruginosa; FIG. 15", "value": "destroys the cell walls of pseudomonas aeruginosa"},
      {"measurement": "morphological change in pseudomonas aeruginosa, scanning electron microscope, treatment time 2 hours", "setting": "pseudomonas aeruginosa; complex 0.1% by mass, lysozyme 0.05%, chitosan 0.05%, mixture each 0.05%, FIG. 17", "value": "changed to a large extent"},
      {"measurement": "change of MIC (minimum inhibitory concentration) on subculture", "setting": "MRSA IID 1677 [2]", "value": "hardly changed"},
      {"measurement": "proliferation suppression effect against MRSA for 48 hours", "setting": "MRSA IID 1677 [3]", "value": "marked improvement effect compared to lysozyme alone and the mixture of lysozyme and chitosan"},
      {"measurement": "proliferation suppression effect against PAO 1", "setting": "[4]", "value": "marked improvement effect compared to lysozyme alone, chitosan alone, and the mixture of lysozyme and chitosan"}
    ]}
  ]
}
